Legend:
MIF = target: T1, MIF (Homo sapiens, UniProt P14174); assay: Nuclease assay of Example 3 (MIF inhibitory activity, Table 4); type: biochemical; parameters: (%) inhibition of MIF nuclease activity: concentration or dose not given beside the values; conditions: for (%) inhibition of MIF nuclease activity: nuclease assay of Example 3
T1 sequence (P14174 1-115): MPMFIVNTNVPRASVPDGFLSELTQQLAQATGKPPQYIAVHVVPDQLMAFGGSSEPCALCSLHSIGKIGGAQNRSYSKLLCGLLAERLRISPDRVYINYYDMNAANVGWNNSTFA
How it was run: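 Human genomic DNA (200 ng), pcDNA (200 ng) or PS^30-type substrates (1 μM) were incubated with MIF (0.25-8 μM final) in 10 mM Tris-HCl pH 7.0, 10 mM MgCl2, 1 mM DTT at 37 °C for 1 h (pcDNA, small substrates) or 4 h (genomic DNA). Cleavage was assessed by agarose or PAGE electrophoresis with EtBr staining and chemiluminescent detection of biotin-labelled DNA.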

[1] = test system: HeLa cells or neuronal cells; assay: Cell death assay of Example 3 (MNNG, alamarBlue; protection against parthanatos, Table 4); type: cell-based; conditions: 1 μM test compound; for (%) inhibition of cell death: MNNG-induced cell death, alamarBlue
How it was run: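 HeLa or neuronal cells (1×10^4/well) were pretreated 1 h at 37° C with 1 μM compound, exposed to MNNG for 15 min, washed, then re-incubated 18 h with 1 μM compound. Viability was read by alamarBlue fluorescence (ex 560/em 590 nm). Cell death was expressed relative to control wells.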

Row | SMILES | (%) inhibition of MIF nuclease activity (MIF) [%] | MIF nuclease activity (MIF) | (%) inhibition of cell death [1] [%] | protection against parthanatos (cell death) [1]
1 | COCC[C@@H]1NC(=O)[C@H](COC(C)(C)C)N(C)C(=O)C(c2ccccc2)NC(=O)CN(C)C(=O)COc2cccc(c2)[C@@H](CCc2ccc(OC)c(OC)c2)OC(=O)[C@@H]2CCCCN2C(=O)C(=O)C(C)(C)COC(=O)C=CCCN(C)C1=O (stereo partly shown) [compound 35] | 21.5 | – | 56.3 | –
2 | COc1ccc(CC[C@H]2OC(=O)[C@@H]3CCCCN3C(=O)C(=O)C(C)(C)COC(=O)C=CCCN(C)C(=O)[C@@H]3CCCN3C(=O)[C@H](COC(C)(C)C)N(C)C(=O)C(c3ccccc3)NC(=O)[C@H](C)N(C)C(=O)COc3cccc2c3F)cc1OC (stereo partly shown) [compound 125] | 2.4 | do not inhibit MIF nuclease activity | 63.4 | protect against parthanatos
3 | COc1ccc(CC[C@H]2OC(=O)[C@@H]3CCCCN3C(=O)C(=O)C(C)(C)COC(=O)C=CCCN(C)C(=O)[C@H]3CCCN3C(=O)[C@H](COC(C)(C)C)N(C)C(=O)C(c3ccccc3)NC(=O)[C@H](C)N(C)C(=O)COc3cccc2c3)cc1OC (stereo partly shown) [compound 91] | 25.8 | – | 62.7 | –
4 | COc1ccc(CC[C@H]2OC(=O)[C@@H]3CCCCN3C(=O)C(=O)C(C)(C)COC(=O)C=CCCN(C)C(=O)[C@@H]3CCCN3C(=O)[C@H](COC(C)(C)C)N(C)C(=O)[C@H](Cc3ccc(F)cc3)NC(=O)[C@H](C)N(C)C(=O)COc3cccc2c3)cc1OC [compound 103] | 16.8 | – | 22.5 | –
5 | CCC[C@@H]1NC(=O)[C@H](Cc2ccccc2)N(C)C(=O)[C@@H](C)NC(=O)CN(C)C(=O)COc2cccc(c2)[C@@H](CCc2ccc(OC)c(OC)c2)OC(=O)[C@@H]2CCCCN2C(=O)C(=O)C(C)(C)COC(=O)C=CCCN(C)C1=O [compound 64] | 27.2 | – | 52.3 | –
6 | COc1ccc(CC[C@H]2OC(=O)[C@@H]3CCCCN3C(=O)C(=O)C(C)(C)COC(=O)C=CCCN(C)C(=O)[C@@H]3CCCN3C(=O)[C@H](COC(C)(C)C)N(C)C(=O)C(c3ccccc3)NC(=O)[C@H](Cc3ccc(O)cc3)N(C)C(=O)COc3cccc2c3)cc1OC (stereo partly shown) [compound 148] | 12.0 | – | 50.7 | –
7 | COc1ccc(CC[C@H]2OC(=O)[C@@H]3CCCCN3C(=O)C(=O)C(C)(C)COC(=O)C=CCCN(C)C(=O)[C@H](Cc3ccc(F)cc3)NC(=O)[C@H](COC(C)(C)C)N(C)C(=O)C(c3ccccc3)NC(=O)CN(C)C(=O)COc3cccc2c3)cc1OC (stereo partly shown) [compound 40] | 37.4 | – | 53.8 | –
8 | COc1ccc(CC[C@H]2OC(=O)[C@@H]3CCCCN3C(=O)C(=O)C(C)(C)COC(=O)C=CCCN(C)C(=O)[C@H](C)NC(=O)[C@H](COC(C)(C)C)N(C)C(=O)C(c3ccccc3)NC(=O)[C@H](C)N(C)C(=O)COc3cccc2c3)cc1OC (stereo partly shown) [compound 47] | 52.3 | – | 54.2 | –
9 | CCC[C@@H]1NC(=O)[C@H](COC(C)(C)C)N(C)C(=O)C(c2ccccc2)NC(=O)CN(C)C(=O)COc2cccc(c2)[C@@H](CCc2ccc(OC)c(OC)c2)OC(=O)[C@@H]2CCCCN2C(=O)C(=O)C(C)(C)COC(=O)C=CCCN(C)C1=O (stereo partly shown) [compound 34] | 24.2 | – | 58.4 | –
10 | COc1ccc(CC[C@H]2OC(=O)[C@@H]3CCCCN3C(=O)C(=O)C(C)(C)COC(=O)C=CCCN(C)C(=O)[C@@H](CC(C)C)NC(=O)[C@H](COC(C)(C)C)N(C)C(=O)[C@H](Cc3ccc4ccccc4c3)NC(=O)[C@H](C)N(C)C(=O)COc3cccc2c3)cc1OC [compound 22] | 61.8 | – | 56.9 | –
11 | COc1ccc(CC[C@H]2OC(=O)[C@@H]3CN(C(=O)OCC4c5ccccc5-c5ccccc54)CCN3C(=O)C(=O)C(C)(C)COC(=O)C=CCCN(C)C(=O)[C@@H]3CCCN3C(=O)[C@H](COC(C)(C)C)N(C)C(=O)C(c3ccccc3)NC(=O)[C@H](C)N(C)C(=O)COc3cccc2c3)cc1OC (stereo partly shown) [compound 127] | 5.0 | – | 46.4 | –
12 | COc1ccc(CC[C@H]2OC(=O)[C@@H]3CCCCN3C(=O)C(=O)C(C)(C)COC(=O)C=CCCN(C)C(=O)[C@H](Cc3ccc4ccccc4c3)NC(=O)[C@H](COC(C)(C)C)N(C)C(=O)C(c3ccccc3)NC(=O)[C@H](C)N(C)C(=O)COc3cccc2c3)cc1OC (stereo partly shown) [compound 58] | 16.5 | – | 56.1 | –
13 | COc1ccc(CC[C@H]2OC(=O)[C@@H]3CCCCN3C(=O)C(=O)C(C)(C)COC(=O)C=CCCN(C)C(=O)[C@@H](Cc3ccccc3)NC(=O)[C@H](COC(C)(C)C)N(C)C(=O)C(c3ccccc3)NC(=O)CN(C)C(=O)COc3cccc2c3)cc1OC (stereo partly shown) [compound 39] | 31.1 | – | 57.5 | –
14 | COc1cc(CC[C@H]2OC(=O)[C@@H]3CCCCN3C(=O)C(=O)C(C)(C)COC(=O)C=CCCN(C)C(=O)[C@@H]3CCCN3C(=O)[C@H](COC(C)(C)C)N(C)C(=O)C(c3ccccc3)NC(=O)[C@H](C)N(C)C(=O)COc3cccc2c3)cc(O)c1OC (stereo partly shown) [compound 120] | 7.1 | – | 45.8 | –

Now from value to compound, other results behind:

Row | (%) inhibition of MIF nuclease activity (MIF) [%] | MIF nuclease activity (MIF) | SMILES | (%) inhibition of cell death [1] [%] | protection against parthanatos (cell death) [1]
15 | 9.2 | – | COc1ccc(CC[C@H]2OC(=O)[C@@H]3CCCCN3C(=O)C(=O)C(C)(C)COC(=O)C=CCCN(C)C(=O)[C@@H]3CCCN3C(=O)[C@H](COC(C)(C)C)N(C)C(=O)[C@H](Cc3ccc(O)cc3)N(C)C(=O)[C@H](C)NC(=O)COc3cccc2c3)cc1OC [compound 141] | 46.8 | –
16 | 9.1 | – | COc1ccc(CC[C@H]2OC(=O)[C@@H]3CCCCN3C(=O)C(=O)C(C)(C)COC(=O)C=CCCN(C)C(=O)[C@@H]3CCCN3C(=O)[C@H](COC(C)(C)C)N(C)C(=O)[C@H](Cc3ccccc3)NC(=O)[C@H](C)N(C)C(=O)COc3cccc2c3)cc1OC [compound 101] | 31.5 | –
17 | 20.1 | – | COCC[C@@H]1NC(=O)[C@H](Cc2ccccc2)N(C)C(=O)[C@@H](C)NC(=O)CN(C)C(=O)COc2cccc(c2)[C@@H](CCc2ccc(OC)c(OC)c2)OC(=O)[C@@H]2CCCCN2C(=O)C(=O)C(C)(C)COC(=O)C=CCCN(C)C1=O [compound 65] | 54.4 | –
18 | 40.3 | – | COc1ccc(CC[C@H]2OC(=O)[C@@H]3CCCCN3C(=O)C(=O)C(C)(C)COC(=O)C=CCCN(C)C(=O)[C@@H](Cc3ccccc3)NC(=O)[C@H](COC(C)(C)C)N(C)C(=O)[C@H](Cc3ccc4ccccc4c3)NC(=O)[C@H](C)N(C)C(=O)COc3cccc2c3)cc1OC [compound 24] | 57.4 | –
19 | 11.0 | – | COc1ccc(CC[C@H]2OC(=O)[C@@H]3CNCCN3C(=O)C(=O)C(C)(C)COC(=O)C=CCCN(C)C(=O)[C@@H]3CCCN3C(=O)[C@H](COC(C)(C)C)N(C)C(=O)C(c3ccccc3)NC(=O)[C@H](C)N(C)C(=O)COc3cccc2c3)cc1OC (stereo partly shown) [compound 128] | 47.4 | –
20 | 12.4 | – | COc1ccc(CC[C@H]2OC(=O)[C@@H]3CCCCN3C(=O)C(=O)C(C)(C)COC(=O)C=CCCN(C)C(=O)[C@H](C(C)C)NC(=O)[C@H](COC(C)(C)C)N(C)C(=O)[C@H](Cc3ccc4ccccc4c3)NC(=O)[C@H](C)N(C)C(=O)COc3cccc2c3)cc1OC [compound 29] | 57.8 | –
21 | 6.8 | – | COc1cc(CC[C@H]2OC(=O)[C@@H]3CCCCN3C(=O)C(=O)C(C)(C)COC(=O)C=CCCN(C)C(=O)[C@@H]3CCCN3C(=O)[C@H](COC(C)(C)C)N(C)C(=O)C(c3ccccc3)NC(=O)[C@H](C)N(C)C(=O)COc3cccc2c3)cc(F)c1OC (stereo partly shown) [compound 111] | 48.9 | –
22 | 10.8 | – | CCC[C@@H]1NC(=O)[C@H](COC(C)(C)C)N(C)C(=O)[C@@H](CC(C)C)NC(=O)CN(C)C(=O)COc2cccc(c2)[C@@H](CCc2ccc(OC)c(OC)c2)OC(=O)[C@@H]2CCCCN2C(=O)C(=O)C(C)(C)COC(=O)C=CCCN(C)C1=O [compound 4] | 39.7 | –
23 | 19.7 | – | COc1ccc(CC[C@H]2OC(=O)[C@@H]3CCCCN3C(=O)C(=O)C(C)(C)COC(=O)C=CCCN(C)C(=O)[C@@H]3CCCN3C(=O)[C@H](COC(C)(C)C)N(C)C(=O)C(c3ccccc3)NC(=O)[C@H](C)N(C)C(=O)COc3cccc2c3)c(O)c1OC (stereo partly shown) [compound 119] | 60.7 | –
24 | 19.2 | – | COc1ccc(CC[C@H]2OC(=O)[C@@H]3CCCCN3C(=O)C(=O)C(C)(C)COC(=O)C=CCCN(C)C(=O)[C@@H]3CCCN3C(=O)[C@H](COC(C)(C)C)N(C)C(=O)C(c3ccccc3)NC(=O)[C@H](C)N(C)C(=O)COc3ccc(F)c2c3)cc1OC (stereo partly shown) [compound 112] | 48.3 | –
25 | 61.5 | – | COc1ccc(CC[C@H]2OC(=O)[C@@H]3CCCCN3C(=O)C(=O)C(C)(C)COC(=O)C=CCCN(C)C(=O)[C@@H](C)NC(=O)[C@H](COC(C)(C)C)N(C)C(=O)C(c3ccccc3)NC(=O)[C@H](C)N(C)C(=O)COc3cccc2c3)cc1OC (stereo partly shown) [compound 48] | 49.2 | –

Reference: patent US20220372014A1, “NEUROPROTECTIVE COMPOUNDS AND METHODS OF USE THEREOF” (The Johns Hopkins University, priority 2019, published 2022)
